What was measured:
[1] = system: gastric cancer cells NUGC-3; test: Anticancer activity against cultured gastric cancer cells (MTT assay); assay type: cell-based; conditions: Homo sapiens, NUGC-3, 48 hours, mixture of S- and R-configurations
Procedure: (§1) Colon cancer cells DLD-1 were maintained and subcultured in RPMI 1640 medium (containing 10% calf serum). Each of compounds SQAG 1, SQAG 2, SQAG 4, SQAG 6, SQAG 8, SQAG 11, SQAG 12, SQAG 13 and SQAG 14 shown in Table 1 was suspended and diluted in the medium, and then was cultivated in a 96-well plate together with the cancer cells at 3×10^3 cells/well. After the culture has been incubated for 48 hours, the MTT assay (Mosmann, T: Journal of immunological Method, 65, 55-63 (1983)) was carried out to compare viability rates.
An assay on anticancer activity against cultured gastric cancer cells was carried out in the same manner as in the assay 4 except that gastric cancer cells NUGC-3 were used instead of the colon cancer cells DLD-1.

[2] = target: T1, DNA polymerase α isolated from the bovine thymus (Bos taurus, UniProt A0AAA9TD94); test: Inhibitory effect against DNA polymerase α; assay type: biochemical; conditions: 0.05 U enzyme, 37° C., 60 minutes; mixture of S- and R-configurations; read-out: IC50, Inhibition Activity against DNA Polymerase α (converted)
T1 construct: isolated from the bovine thymus and purified with an antibody column; from tissue; host or cells: bovine thymus
T1 sequence (A0AAA9TD94 1-1441): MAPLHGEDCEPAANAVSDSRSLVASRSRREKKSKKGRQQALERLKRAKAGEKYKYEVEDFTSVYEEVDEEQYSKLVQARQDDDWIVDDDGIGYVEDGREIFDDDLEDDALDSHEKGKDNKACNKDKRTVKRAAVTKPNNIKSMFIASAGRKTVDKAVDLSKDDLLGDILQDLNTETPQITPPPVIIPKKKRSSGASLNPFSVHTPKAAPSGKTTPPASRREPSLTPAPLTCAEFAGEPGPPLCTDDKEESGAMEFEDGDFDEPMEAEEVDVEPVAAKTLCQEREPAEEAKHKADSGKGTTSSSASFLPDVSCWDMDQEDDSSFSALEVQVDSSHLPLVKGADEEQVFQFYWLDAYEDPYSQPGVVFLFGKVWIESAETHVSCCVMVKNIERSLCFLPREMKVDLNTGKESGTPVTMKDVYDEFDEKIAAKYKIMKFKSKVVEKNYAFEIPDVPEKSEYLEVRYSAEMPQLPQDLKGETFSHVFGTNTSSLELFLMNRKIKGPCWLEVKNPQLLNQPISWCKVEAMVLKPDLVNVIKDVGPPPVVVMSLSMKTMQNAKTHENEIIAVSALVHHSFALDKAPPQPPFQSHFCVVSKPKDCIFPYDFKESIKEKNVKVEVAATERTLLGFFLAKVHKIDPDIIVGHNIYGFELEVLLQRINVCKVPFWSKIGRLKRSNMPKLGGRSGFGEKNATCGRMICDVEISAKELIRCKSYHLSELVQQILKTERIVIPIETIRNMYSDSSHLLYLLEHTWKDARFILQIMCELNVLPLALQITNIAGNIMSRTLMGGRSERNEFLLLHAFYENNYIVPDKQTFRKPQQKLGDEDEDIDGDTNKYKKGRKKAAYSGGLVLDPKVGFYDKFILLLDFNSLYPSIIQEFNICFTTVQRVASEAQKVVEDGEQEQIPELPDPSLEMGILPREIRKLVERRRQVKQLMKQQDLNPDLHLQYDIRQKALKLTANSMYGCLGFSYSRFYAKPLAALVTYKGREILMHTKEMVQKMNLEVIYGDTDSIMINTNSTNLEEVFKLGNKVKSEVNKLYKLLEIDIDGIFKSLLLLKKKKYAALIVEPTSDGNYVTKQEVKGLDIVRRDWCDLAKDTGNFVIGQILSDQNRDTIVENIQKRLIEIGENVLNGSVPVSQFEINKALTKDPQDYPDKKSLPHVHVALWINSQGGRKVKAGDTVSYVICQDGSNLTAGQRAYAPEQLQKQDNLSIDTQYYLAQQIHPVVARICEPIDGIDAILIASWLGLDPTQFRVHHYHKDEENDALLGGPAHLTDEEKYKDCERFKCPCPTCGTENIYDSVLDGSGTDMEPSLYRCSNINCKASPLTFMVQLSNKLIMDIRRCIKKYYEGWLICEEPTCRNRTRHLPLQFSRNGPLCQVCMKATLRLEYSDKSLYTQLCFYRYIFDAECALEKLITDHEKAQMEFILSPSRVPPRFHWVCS
Procedure: An assay on inhibitory effect against a DNA polymerase α was carried out in the following manner.
0.05 U of a DNA polymerase α isolated from the bovine thymus and purified with an antibody column was mixed with each of compounds SQAG 1 to SQAG 14 listed in Table 1 above, each of which was dissolved in DMSO. Each mixture was added with a buffer of an inorganic salt necessary for the enzymatic reaction, [^3H]-labeled dTTP, and a compound for reaction containing a template DNA chain, and was incubated at 37° C. for 60 minutes.
After the enzymatic reaction was stopped, the resultant product was fixed on a dedicated filter to make measurement by a liquid scintillation counter. The amount of enzymatically synthesized dTTP was calculated as a radiation dose (cpm) of [^3H].

Colon cancer cells DLD-1 = test: Anticancer activity against cultured colon cancer cells (MTT assay); assay type: cell-based; conditions: Homo sapiens, DLD-1, 48 hours, mixture of S- and R-configurations, read-out: IC50, Anti-Cancer Activity against Colon Cancer Cells
Procedure: An assay on anticancer activity against cultured colon cancer cells was carried out in the following manner.
as §1

[3] = system: LEW rat skin graft on ACI rats; test: Rejection test in skin graft; assay type: in vivo; conditions: 10 mL of 1 mg/mL intraperitoneally daily for five days, graft taken on the seventh day
Procedure: Rejection test in skin graft
ACI rats and LEW rats were prepared and subjected to inhalation anesthesia of ether. After shaving the dorsum of each ACI rat, posterior lateral skin (1×1 cm) was removed to form a skin-flayed wound, and then a hemostatic treatment was performed. On the other hand, a piece of skin (1×1 cm) was obtained from the tail of each LEW rat. The donor skin was applied to the skin-flayed wound of each ACI rat and sutured with 5-0 nylon sutures. Then, gauze was applied to the surgically operated portion and a corset with a rubber bandage was further attached thereon to protect it. Such a skin transplantation operation was applied to all ten ACI rats in the same manner. Of the ten ACT rats, five rats were selected at random and classified as a control group, and the remaining five rats were classified as a test group to which test substances are to be administered. To the control group, 10 mL of physiological saline was intraperitoneally injected daily for five days after the surgery. To the test group, 10 mL solution of SQAG 9 dissolved in physiological saline at a concentration of 1 mg/mL was intraperitoneally injected daily for five days after the surgery in the same manner as in the control group.
On the seventh day after the operation, a graft was taken to prepare a tissue specimen. […]

[4] = system: responder cells (T lymphocytes) with mitomycin C treated stimulator lymphocytes; test: Mixed lymphocytes reaction ([3H]-thymidine uptake of responder cells); assay type: cell-based, healthy persons; conditions: 4 days culture, then 12 hours [3H]-thymidine; FIGS. 1-4
Procedure: Mixed lymphocytes reaction
Lymphocytes serving as stimulator cells and responder cells were prepared from blood taken from individual healthy persons.
The responder cells were further separated from the lymphocyte cells to give T lymphocytes alone.
No treatment was applied to the responder cells. 10^6/mL of the stimulator cells were treated with 10 μg/mL of mitomycin C to stop the cell growth. Thereafter, the stimulator cells were washed with PBS (phosphate buffer saline) 4 times.
Subsequently, the responder cells were inoculated at a rate of 10^5 cells per well and then test substances (compounds SQAG 3, SQAG 5, SQAG 7, and SQAG 9 listed in Table 6 below) were added to a predetermined concentration. The reaction mixture was cultured at 37° C. for one hour. Thereafter, the stimulator cells were added at a rate of 10^5 cells per well. The mixture was cultured in a CO2 incubator at 37° C. for 4 days. After the incubation, the proliferation ability of the responder cells was quantified as follows. […] Then, the amount of [^3H]-thymidine uptake into the cells was determined by a scintillation counter.
FIGS. 1-4 show the amounts of [^3H]-thymidine uptake when SQAG 3, SQAG 5, SQAG 7, and SQAG 9 are added. […] In each of the FIGS. 1-4, the vertical axis indicates the intensity of radioactivity and the horizontal axis indicates the concentration of the test substance.

SMILES | IC50 [1] [µg/mL] | IC50 [2] [nM] | IC50 (Colon cancer cells DLD-1) [µg/mL] | necrosis of the epidermal layer of the graft (histological observation) [3] | rats in which some parts of the epidermis adhered to the dermis (rejection suppressed) [3] | immunosuppressive activity (amount of [3H]-thymidine uptake) [4]
CCCCCCCCCCCCCC(=O)OCC(CO[C@H]1O[C@H](CS(=O)(=O)O)[C@@H](O)[C@H](O)[C@H]1O)OC(=O)CCCCCCCCCCCCC (mixture of isomers) [SQAG 1] | 32 | 1080 | 38 |  |  | 
CCCCCCCCCCCCCC(=O)OCC(O)CO[C@H]1O[C@H](CS(=O)(=O)O)[C@@H](O)[C@H](O)[C@H]1O (mixture of isomers) [SQAG 2] | 40 | 8510 | 40 |  |  | 
CCCCCCCCCCCCCCCC(=O)OCC(O)CO[C@H]1O[C@H](CS(=O)(=O)O)[C@@H](O)[C@H](O)[C@H]1O (mixture of isomers) [SQAG 4] | 40 | 6290 | 31 |  |  | 
CCCCCCCCCCCCCCCCCC(=O)OCC(CO[C@H]1O[C@H](CS(=O)(=O)O)[C@@H](O)[C@H](O)[C@H]1O)OC(=O)CCCCCCCCCCCCCCCCC (mixture of isomers) [SQAG 5] |  | 352 |  |  |  | 
CCCCCCCCCCCCCCCCCC(=O)OCC(O)CO[C@H]1O[C@H](CS(=O)(=O)O)[C@@H](O)[C@H](O)[C@H]1O (mixture of isomers) [SQAG 6] | 37.5 | 4100 | 30 |  |  | 
CCCCCCCCCCCCCCCC(=O)OCC(CO[C@@H]1O[C@H](CS(=O)(=O)O)[C@@H](O)[C@H](O)[C@H]1O)OC(=O)CCCCCCCCCCCCCCC (mixture of isomers) [SQAG 7] |  | 377 |  |  |  | 
CCCCCCCCCCCCCCCC(=O)OCC(O)CO[C@@H]1O[C@H](CS(=O)(=O)O)[C@@H](O)[C@H](O)[C@H]1O (mixture of isomers) [SQAG 8] | 50 | 7190 | 42 |  |  | 
CCCCCCCCCCCCCCCCCC(=O)OCC(CO[C@@H]1O[C@H](CS(=O)(=O)O)[C@@H](O)[C@H](O)[C@H]1O)OC(=O)CCCCCCCCCCCCCCCCC (mixture of isomers) [SQAG 9] |  | 352 |  | three out of five rats | remaining two rats | considerably higher immunosuppressive activity than other compounds
CCCCCCCCCCCCCCCCCC(=O)OCC(O)CO[C@@H]1O[C@H](CS(=O)(=O)O)[C@@H](O)[C@H](O)[C@H]1O (mixture of isomers) [SQAG 10] |  | 5130 |  |  |  | 
CCCCCCCCCCCCCCCCCCCC(=O)OCC(O)CO[C@H]1O[C@H](CS(=O)(=O)O)[C@@H](O)[C@H](O)[C@H]1O (mixture of isomers) [SQAG 11] | 24 | 1960 | 28 |  |  | 
CCCCCCCCCCCCCCCCCCCCCC(=O)OCC(O)CO[C@H]1O[C@H](CS(=O)(=O)O)[C@@H](O)[C@H](O)[C@H]1O (mixture of isomers) [SQAG 12] | 23 | 1560 | 20 |  |  | 
CCCCCCCCCCCCCCCCCCCCCCCC(=O)OCC(O)CO[C@H]1O[C@H](CS(=O)(=O)O)[C@@H](O)[C@H](O)[C@H]1O (mixture of isomers) [SQAG 13] | 20 | 1490 | 20 |  |  | 
CCCCCCCCCCCCCCCCCCCCCCCCCC(=O)OCC(O)CO[C@H]1O[C@H](CS(=O)(=O)O)[C@@H](O)[C@H](O)[C@H]1O (mixture of isomers) [SQAG 14] | 20 | 1430 | 18 |  |  | 
CCCCCCCCCCCCCCCC(=O)OCC(CO[C@H]1O[C@H](CS(=O)(=O)O)[C@@H](O)[C@H](O)[C@H]1O)OC(=O)CCCCCCCCCCCCCCC (some centres unmarked) [SQAG 3] |  | 503 |  |  |  | 

Reference: patent US6518410B2, “Sulfoquinovosylacylglycerol derivative, and use thereof as medicaments” (Toyo Suisan Kaisha, Ltd., priority 1999, dated 2003)
